Experimental data as given in patent US8324246B2, “Indol carboxylic acid bispyridyl carboxamide derivatives, pharmaceutically acceptable salt thereof, preparation method and composition containing the same as an active ingredient” (Korea Research Institute of Chemical Technology, priority 2008, dated 2012).
pIC50: −log10 of the molar value. Like-named read-outs stand apart in the source and are kept apart here.

What was measured:
5-HT7 = 5-HT7 (Homo sapiens, UniProt P34969); assay: Receptor selectivity binding, 5-HT7; details: Table 3
Chain of 5-HT7 (P34969 whole entry, species assumed): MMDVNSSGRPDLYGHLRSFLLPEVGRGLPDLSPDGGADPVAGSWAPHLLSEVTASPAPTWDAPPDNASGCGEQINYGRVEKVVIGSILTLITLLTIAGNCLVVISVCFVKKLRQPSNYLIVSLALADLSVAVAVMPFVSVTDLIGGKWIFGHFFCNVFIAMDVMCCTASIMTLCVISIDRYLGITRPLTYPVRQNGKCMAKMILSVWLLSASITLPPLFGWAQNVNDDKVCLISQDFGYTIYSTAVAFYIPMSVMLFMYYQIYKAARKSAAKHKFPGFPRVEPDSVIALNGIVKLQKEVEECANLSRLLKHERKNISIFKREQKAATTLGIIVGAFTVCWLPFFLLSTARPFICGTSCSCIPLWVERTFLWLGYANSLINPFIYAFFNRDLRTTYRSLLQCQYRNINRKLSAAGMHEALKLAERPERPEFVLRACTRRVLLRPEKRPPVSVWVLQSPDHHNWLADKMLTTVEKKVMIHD
Experimental: (§1) For their high binding affinities for 5-HT2c, compounds in Examples 14 to 18, 20, and 22 or in Comparative Example 1 were used for the experiment with reaction mixtures. Except that CNS receptors such as 5-HT1a, 5-HT2a, 5-HT7, D2, D3 or D4 other than 5-HT2c were used as a receptor, IC50 values (nM) were measured in the same manner as in Experimental Example 1.

5-HT1a = biological target: T1, 5-HT1a (Homo sapiens, UniProt P08908); assay: Receptor selectivity binding, 5-HT1a; details: Table 3
T1 sequence (P08908 1-422): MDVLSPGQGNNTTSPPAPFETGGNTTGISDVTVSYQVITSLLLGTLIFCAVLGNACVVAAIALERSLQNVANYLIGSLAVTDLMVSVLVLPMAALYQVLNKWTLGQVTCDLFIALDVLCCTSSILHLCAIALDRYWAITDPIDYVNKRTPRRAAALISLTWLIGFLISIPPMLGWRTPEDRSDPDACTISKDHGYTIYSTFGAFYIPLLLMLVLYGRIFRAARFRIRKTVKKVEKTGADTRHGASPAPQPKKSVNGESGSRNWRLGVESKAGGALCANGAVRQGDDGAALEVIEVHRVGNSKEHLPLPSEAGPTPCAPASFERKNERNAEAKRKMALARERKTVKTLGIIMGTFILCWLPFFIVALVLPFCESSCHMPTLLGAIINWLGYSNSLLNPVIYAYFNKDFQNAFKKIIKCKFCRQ
Experimental: as §1

5-HT2a = 5-HT2a (Homo sapiens, UniProt P28223); assay: Receptor selectivity binding, 5-HT2a; details: Table 3
Chain of 5-HT2a (P28223 whole entry, species assumed): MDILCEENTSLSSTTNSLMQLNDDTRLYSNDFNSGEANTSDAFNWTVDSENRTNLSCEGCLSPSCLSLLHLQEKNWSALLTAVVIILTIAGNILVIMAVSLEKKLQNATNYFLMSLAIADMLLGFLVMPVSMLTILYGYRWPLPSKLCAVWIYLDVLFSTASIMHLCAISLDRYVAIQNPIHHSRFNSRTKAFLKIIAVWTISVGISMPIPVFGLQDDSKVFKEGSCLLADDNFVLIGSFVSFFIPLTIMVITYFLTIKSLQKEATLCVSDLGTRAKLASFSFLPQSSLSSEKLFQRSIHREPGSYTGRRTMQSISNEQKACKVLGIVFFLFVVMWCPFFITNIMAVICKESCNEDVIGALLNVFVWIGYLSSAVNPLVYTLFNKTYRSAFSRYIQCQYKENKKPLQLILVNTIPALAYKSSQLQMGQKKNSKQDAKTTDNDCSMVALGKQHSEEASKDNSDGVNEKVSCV
Experimental: as §1

D2 = D2 (Homo sapiens, UniProt P14416); assay: Receptor selectivity binding, D2; details: Table 3
Chain of D2 (P14416 whole entry): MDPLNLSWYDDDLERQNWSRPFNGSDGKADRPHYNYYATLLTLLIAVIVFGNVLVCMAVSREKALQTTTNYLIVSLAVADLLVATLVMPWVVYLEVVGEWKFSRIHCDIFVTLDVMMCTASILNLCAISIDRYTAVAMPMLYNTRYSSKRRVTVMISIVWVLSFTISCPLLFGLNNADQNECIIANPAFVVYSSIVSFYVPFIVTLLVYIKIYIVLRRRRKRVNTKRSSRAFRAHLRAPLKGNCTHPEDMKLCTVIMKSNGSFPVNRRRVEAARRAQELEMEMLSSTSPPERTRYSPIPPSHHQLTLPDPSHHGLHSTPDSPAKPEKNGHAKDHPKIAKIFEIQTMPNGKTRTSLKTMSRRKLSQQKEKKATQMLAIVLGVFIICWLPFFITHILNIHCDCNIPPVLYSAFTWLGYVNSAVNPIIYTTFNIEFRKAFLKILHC
Experimental: as §1

D3 = D3 (Homo sapiens, UniProt P35462); assay: Receptor selectivity binding, D3; details: Table 3
Chain of D3 (P35462 whole entry): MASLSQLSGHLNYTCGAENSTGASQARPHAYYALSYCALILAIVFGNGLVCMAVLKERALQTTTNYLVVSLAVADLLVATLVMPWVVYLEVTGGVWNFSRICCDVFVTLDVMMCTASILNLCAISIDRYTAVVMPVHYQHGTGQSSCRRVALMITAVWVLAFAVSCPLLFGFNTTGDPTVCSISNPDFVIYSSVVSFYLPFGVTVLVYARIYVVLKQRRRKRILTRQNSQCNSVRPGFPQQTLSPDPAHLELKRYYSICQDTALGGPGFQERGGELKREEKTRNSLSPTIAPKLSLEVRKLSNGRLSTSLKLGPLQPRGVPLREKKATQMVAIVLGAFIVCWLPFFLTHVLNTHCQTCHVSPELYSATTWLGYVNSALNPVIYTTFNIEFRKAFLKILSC
Experimental: as §1

D4 = biological target: T2, D4 (Homo sapiens, UniProt P21917); assay: Receptor selectivity binding, D4; details: Table 3
T2 sequence (P21917 1-419): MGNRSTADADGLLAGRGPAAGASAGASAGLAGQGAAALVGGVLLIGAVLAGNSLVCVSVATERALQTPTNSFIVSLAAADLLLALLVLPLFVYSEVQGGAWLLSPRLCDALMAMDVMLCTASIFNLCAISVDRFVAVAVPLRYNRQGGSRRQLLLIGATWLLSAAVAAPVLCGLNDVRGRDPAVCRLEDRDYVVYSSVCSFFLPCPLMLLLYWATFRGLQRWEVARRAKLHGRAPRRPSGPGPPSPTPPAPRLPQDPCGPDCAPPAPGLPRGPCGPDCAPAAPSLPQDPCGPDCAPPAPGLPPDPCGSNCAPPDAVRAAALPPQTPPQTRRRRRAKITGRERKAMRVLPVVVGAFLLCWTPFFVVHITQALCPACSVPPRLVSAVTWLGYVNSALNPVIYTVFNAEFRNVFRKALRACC
Experimental: as §1

[1] = biological target: T3, human gene recombinant 5-HT2c receptor expressed in CHO-K1 cell (Homo sapiens, UniProt P28335); assay: Binding affinity to the serotonin 5-HT2c receptor ([3H]mesulergine)
T3 construct: purchased Euroscreen, Belgium; host or cells: CHO-K1
T3 sequence (P28335 33-458): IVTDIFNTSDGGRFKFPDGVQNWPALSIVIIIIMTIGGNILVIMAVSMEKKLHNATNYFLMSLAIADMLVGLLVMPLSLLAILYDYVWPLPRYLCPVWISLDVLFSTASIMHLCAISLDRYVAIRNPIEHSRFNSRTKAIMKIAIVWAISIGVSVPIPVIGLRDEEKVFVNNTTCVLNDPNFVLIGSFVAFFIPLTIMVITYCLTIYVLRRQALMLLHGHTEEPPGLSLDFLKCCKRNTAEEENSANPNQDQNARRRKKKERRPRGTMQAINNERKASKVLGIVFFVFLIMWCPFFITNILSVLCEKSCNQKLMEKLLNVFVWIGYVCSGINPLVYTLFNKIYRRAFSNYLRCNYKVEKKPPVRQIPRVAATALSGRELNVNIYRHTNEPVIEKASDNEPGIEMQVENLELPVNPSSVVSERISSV
Experimental: As a receptor, a human gene recombinant 5-HT2c receptor expressed in CHO—K1 cell was purchased from Euroscreen, Belgium and used in the experiment, and as a radioactive isotope, [3H]mesulergine (Amersham Biosciences, UK).
A final volume of 0.25 ml reaction mixture was prepared by adding 50 mM Tris-HCl buffer (pH 7.7) containing one of the compounds in Examples 1-29 or Comparative Examples 1-2, 1 nM of [3H]mesulergine, 5-HT2c receptor membranes (4 D/well), 0.1% ascorbic acid and 10 µM pargyline, and incubated at 37° C. for 30 minutes. After incubation, the reaction was terminated by the rapid filtration using an Inotech harvester (Inotech) through a Wallace GF/C glass fiber filter (Wallac, Finland) which was presoaked in 1% BSA, and then washed with ice-cold 50 mM Tris-HCl buffer. The filter was covered with MeltiLex, sealed in a sample bag followed by drying in the oven, and counted by MicroBeta Plus (Wallac). Non-specific binding was determined in the presence of […] Mianserin. Three repeating experiments were carried out with 7-8 concentrations of the compound in Examples 1-29 or the compound in comparative examples 1-2, run in duplicate tubes, and isotherms from the three assays were calculated by a nonlinear regression analysis (GraphPad Prism Program, San Diego, USA) to yield IC50 values.

5-HT6 = 5-HT6 (Homo sapiens, UniProt P50406); assay: Receptor selectivity binding, 5-HT6; details: Table 3
Chain of 5-HT6 (P50406 whole entry, species assumed): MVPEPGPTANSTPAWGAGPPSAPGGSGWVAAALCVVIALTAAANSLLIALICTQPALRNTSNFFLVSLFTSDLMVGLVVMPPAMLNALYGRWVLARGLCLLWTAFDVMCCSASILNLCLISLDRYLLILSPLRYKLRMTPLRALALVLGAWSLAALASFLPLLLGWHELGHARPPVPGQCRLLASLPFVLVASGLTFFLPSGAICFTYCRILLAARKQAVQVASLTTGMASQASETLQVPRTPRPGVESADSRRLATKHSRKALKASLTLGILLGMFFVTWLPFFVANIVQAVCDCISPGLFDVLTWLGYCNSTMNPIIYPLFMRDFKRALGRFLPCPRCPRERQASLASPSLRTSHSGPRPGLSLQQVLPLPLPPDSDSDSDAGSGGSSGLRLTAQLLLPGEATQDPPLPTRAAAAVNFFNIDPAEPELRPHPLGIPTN
Experimental: as §1

human 5-HT2c receptors = biological target: T4, human 5-HT2c receptors (Homo sapiens, UniProt P28335); details: for Inhibition rate of serotonin (5-HT)-induced [35S]GTPS increase: 30 µM serotonin
T4 sequence (P28335 33-458): T3 sequence (P28335 33-458)

[2] = [3H]mesulergine 1 nM, 37° C. 30 minutes, Table 2, read-out: IC50

Structure (SMILES) | pIC50 (5-HT7) | pIC50 (5-HT1a) | pIC50 (5-HT2a) | pIC50 (D2) | pIC50 (D3) | pIC50 (D4) | pIC50 ([1]; Table 3, read-out: IC50 5-HT2c) | pIC50 [1, 2] | pIC50 (5-HT6) | Inhibition rate of serotonin (5-HT)-induced [35S]GTPS increase (human 5-HT2c receptors; concentration 0.001 µM) | Inhibition rate of serotonin (5-HT)-induced [35S]GTPS increase (human 5-HT2c receptors; concentration 0.01 µM) | Inhibition rate of serotonin (5-HT)-induced [35S]GTPS increase (human 5-HT2c receptors; concentration 0.1 µM) | Inhibition rate of serotonin (5-HT)-induced [35S]GTPS increase (human 5-HT2c receptors; concentration 1 µM) | Inhibition rate of serotonin (5-HT)-induced [35S]GTPS increase (human 5-HT2c receptors; concentration 10 µM) | pIC50 (human 5-HT2c receptors; read-out: IC50, antagonist activity on serotonin (5-HT)-induced GTP level increase, 30 M serotonin) | inhibition of the 5-HT-induced increase in [35S]GTPS concentration level (human 5-HT2c receptors; control 5-HT2c antagonist)
COc1ccc2[nH]cc(C(=O)Nc3ccc(Oc4cccnc4C)nc3)c2c1 [Example 15, 5-methoxy-1H-indole-3-carboxylic acid[6-(2-methyl-pyridine-3-yloxy)-pyridine-3-yl]-amide] | < 5.00 | < 5.00 | < 5.00 | < 5.00 | < 5.00 | < 5.00 | 7.97 | 7.97 | < 5.00 |  |  |  |  |  |  | 
Cc1ccc2c(C(=O)Nc3ccc(Oc4cccnc4C)nc3)c[nH]c2c1 [Example 16, 6-methyl-1H-indole-3-carboxylic acid[6-(2-methyl-pyridine-3-yloxy)-pyridine-3-yl]-amide] | < 5.00 | < 5.00 | < 5.00 | < 5.00 | < 5.00 | < 5.00 | 8.72 | 8.72 | < 5.00 |  |  |  |  |  |  | 
Cc1ncccc1Oc1ccc(NC(=O)c2c[nH]c3c(C)cccc23)cn1 [Example 17, 7-methyl-1H-indole-3-carboxylic acid[6-(2-methyl-pyridine-3-yloxy)-pyridine-3-yl]-amide] | < 5.00 | < 5.00 | < 5.00 | < 5.00 | < 5.00 | < 5.00 | 8.09 | 8.09 | < 5.00 |  |  |  |  |  |  | 
Cc1ncccc1Oc1ccc(NC(=O)c2c[nH]c3ccc(I)cc23)cn1 [Example 18, 5-iodo-1H-indole-3-carboxylic acid[6-(2-methyl-pyridine-3-yloxy)-pyridine-3-yl]-amide] | < 6.00 | 6.11 | 7.07 | < 5.00 | < 6.00 | < 6.00 | 9.21 | 9.22 | < 6.00 |  |  |  |  |  |  | 
O=C(Nc1ccc(OCc2ccccn2)nc1)c1c[nH]c2ccccc12 [Example 20, 1H-indole-3-carboxylic acid[6-(pyridine-2-ylmethoxy)-pyridine-3-yl]-amide] | < 5.00 | < 5.00 | < 5.00 | < 5.00 | < 5.00 | < 5.00 | 8.23 | 8.23 | < 6.00 |  |  |  |  |  |  | 
O=C(Nc1ccc(Oc2cccnc2Cl)nc1)c1c[nH]c2ccccc12 [Example 22, 1H-indole-3-carboxylic acid[6-(2-chloro-pyridine-3-yloxy)-pyridine-3-yl]-amide] | < 5.00 | < 5.00 | < 6.00 | < 5.00 | < 5.00 | < 6.00 | 9.30 | 9.30 | < 5.00 | 0% | 1% | 9% | 67% | 100% | 6.23 | 
Cc1cc2c(cc1Cl)N(C(=O)Nc1ccc(Oc3cccnc3C)nc1)CC2 [SB242084, reference compound] |  |  |  |  |  |  |  |  |  |  |  |  |  |  |  | inhibited
